Measurements from ChEMBL document CHEMBL3885861, “Open TG-GATES”.

Species on record: Rattus norvegicus
Test: Open TG-GATES - Regimen: Daily Repeat
Format: toxicity, organism-based, Sprague-Dawley
Set-up: regimen Daily Repeat, gender Male, age 6 weeks
Conditions: in vivo, po, route gavage; for APTT / Bas / Eos / Fbg / Hb / Ht / Lym / MCH / MCHC / MCV / Mono / Neu / PT / Plat / RBC / Ret / WBC: tissue Blood; for KIDNEY_L / KIDNEY_R / KIDNEY_TOTAL: tissue Kidney; for LIVER: tissue Liver; for A/G / ALP / ALT / AST / BUN / CRE / Ca / Cl / DBIL / GLC / IP / K / LDH / Na / PL / RALB / TBIL / TC / TG / TP / gamma-GTP: tissue Plasma
[1] = 0 mg/kg, 72 h, dose level Control, time 3 day
[2] = 0 mg/kg, […], dose level Control, time 7 day
[3] = 0 mg/kg, […], dose level Control, time 14 day
[4] = 0 mg/kg, […], dose level Control, time 28 day
[5] = 10 mg/kg, 72 h, dose level Low, time 3 day
[6] = 10 mg/kg, […], dose level Low, time 7 day
[7] = 10 mg/kg, […], dose level Low, time 14 day
[8] = 10 mg/kg, […], dose level Low, time 28 day

OCCOCCN1CCN(C(c2ccccc2)c2ccc(Cl)cc2)CC1 (centres undefined) [HYDROXYZINE]
TERMINAL_BW [1]: 230.9 g
APTT [1]: 15.5 s
Bas [1]: 0%
Eos [1]: 1%
Fbg [1]: 263.6 mg/dL
Hb [1]: 12.9 g/dL
Ht [1]: 39%
Lym [1]: 74.6%
MCH [1]: 21.1 pg
MCHC [1]: 33.1%
MCV [1]: 63.9 fL
Mono [1]: 3.2%
Neu [1]: 20.6%
PT [1]: 15.7 s
Plat [1]: 117.4 x10_4/uL
RBC [1]: 610.4 x10_4/ul
Ret [1]: 7.5%
WBC [1]: 77.5 x10_2/uL
KIDNEY_L [1]: 1 g
KIDNEY_R [1]: 1 g
KIDNEY_TOTAL [1]: 1.9 g
LIVER [1]: 11.1 g
A/G [1]: 0.9
ALP [1]: 1652.8 IU/L
ALT [1]: 46.2 IU/L
AST [1]: 68.8 IU/L
BUN [1]: 16.2 mg/dL
CRE [1]: 0.2 mg/dL
Ca [1]: 10.9 mg/dL
Cl [1]: 105.8 meq/L
DBIL [1]: 0.012 mg/dL
GLC [1]: 186.8 mg/dL
IP [1]: 8.1 mg/dL
K [1]: 4 meq/L
LDH [1]: 91.8 IU/L
Na [1]: 143.2 meq/L
PL [1]: 148.4 mg/dL
RALB [1]: 2.7 g/dL
TBIL [1]: 0.052 mg/dL
TC [1]: 73 mg/dL
TG [1]: 90 mg/dL
TP [1]: 5.7 g/dL
gamma-GTP [1]: 0.8 IU/L
TERMINAL_BW [2]: 263.6 g
TERMINAL_BW [3]: 336.5 g
TERMINAL_BW [4]: 390.2 g
APTT [2]: 16.8 s
Bas [2]: 0%
Eos [2]: 1%
Fbg [2]: 282.2 mg/dL
Hb [2]: 13.6 g/dL
Ht [2]: 40.9%
Lym [2]: 79.2%
MCH [2]: 21.3 pg
MCHC [2]: 33.3%
MCV [2]: 63.9 fL
Mono [2]: 2.4%
Neu [2]: 16.4%
PT [2]: 15.4 s
Plat [2]: 113.3 x10_4/uL
RBC [2]: 639.4 x10_4/ul
Ret [2]: 6.1%
WBC [2]: 82.1 x10_2/uL
APTT [3]: 16.9 s
Bas [3]: 0%
Eos [3]: 1%
Fbg [3]: 292 mg/dL
Hb [3]: 14.1 g/dL
Ht [3]: 41.5%
Lym [3]: 75.4%
MCH [3]: 20.7 pg
MCHC [3]: 34%
MCV [3]: 60.9 fL
Mono [3]: 2.8%
Neu [3]: 20.2%
PT [3]: 15.5 s
Plat [3]: 116.6 x10_4/uL
RBC [3]: 682.2 x10_4/ul
Ret [3]: 4.8%
WBC [3]: 105.1 x10_2/uL
APTT [4]: 26.6 s
Bas [4]: 0.2%
Eos [4]: 1.2%
Fbg [4]: 295.8 mg/dL
Hb [4]: 15.1 g/dL
Ht [4]: 43.4%
Lym [4]: 79.6%
MCH [4]: 19.7 pg
MCHC [4]: 34.7%
MCV [4]: 56.7 fL
Mono [4]: 2%
Neu [4]: 16.4%
PT [4]: 15.9 s
Plat [4]: 105.6 x10_4/uL
RBC [4]: 766.4 x10_4/ul
Ret [4]: 2.4%
WBC [4]: 99.9 x10_2/uL
KIDNEY_L [2]: 1.1 g
KIDNEY_R [2]: 1.1 g
KIDNEY_TOTAL [2]: 2.3 g
KIDNEY_L [3]: 1.3 g
KIDNEY_R [3]: 1.3 g
KIDNEY_TOTAL [3]: 2.7 g
KIDNEY_L [4]: 1.4 g
KIDNEY_R [4]: 1.3 g
KIDNEY_TOTAL [4]: 2.8 g
LIVER [2]: 12.4 g
LIVER [3]: 15.4 g
LIVER [4]: 16.2 g
A/G [2]: 0.8
ALP [2]: 1624.6 IU/L
ALT [2]: 41.6 IU/L
AST [2]: 68.4 IU/L
BUN [2]: 16.6 mg/dL
CRE [2]: 0.2 mg/dL
Ca [2]: 11 mg/dL
Cl [2]: 105.2 meq/L
DBIL [2]: 0.016 mg/dL
GLC [2]: 193 mg/dL
IP [2]: 8 mg/dL
K [2]: 4 meq/L
LDH [2]: 68.4 IU/L
Na [2]: 143.2 meq/L
PL [2]: 166.6 mg/dL
RALB [2]: 2.7 g/dL
TBIL [2]: 0.054 mg/dL
TC [2]: 84 mg/dL
TG [2]: 103 mg/dL
TP [2]: 5.8 g/dL
gamma-GTP [2]: 0.8 IU/L
A/G [3]: 0.8
ALP [3]: 1450 IU/L
ALT [3]: 40.6 IU/L
AST [3]: 62.6 IU/L
BUN [3]: 16.2 mg/dL
CRE [3]: 0.2 mg/dL
Ca [3]: 10.6 mg/dL
Cl [3]: 103.8 meq/L
DBIL [3]: 0.02 mg/dL
GLC [3]: 190.2 mg/dL
IP [3]: 7.4 mg/dL
K [3]: 4 meq/L
LDH [3]: 94.6 IU/L
Na [3]: 141.8 meq/L
PL [3]: 151.2 mg/dL
RALB [3]: 2.7 g/dL
TBIL [3]: 0.056 mg/dL
TC [3]: 73 mg/dL
TG [3]: 126.4 mg/dL
TP [3]: 6.1 g/dL
gamma-GTP [3]: 0.6 IU/L
A/G [4]: 0.8
ALP [4]: 992.6 IU/L
ALT [4]: 36 IU/L
AST [4]: 61.2 IU/L
BUN [4]: 16.8 mg/dL
CRE [4]: 0.2 mg/dL
Ca [4]: 10.6 mg/dL
Cl [4]: 106 meq/L
DBIL [4]: 0.016 mg/dL
GLC [4]: 186.6 mg/dL
IP [4]: 6.6 mg/dL
K [4]: 4.1 meq/L
LDH [4]: 118.8 IU/L
Na [4]: 142.8 meq/L
PL [4]: 149.2 mg/dL
RALB [4]: 2.8 g/dL
TBIL [4]: 0.052 mg/dL
TC [4]: 68.2 mg/dL
TG [4]: 161.2 mg/dL
TP [4]: 6.3 g/dL
gamma-GTP [4]: 0.4 IU/L
TERMINAL_BW [5]: 228.1 g
APTT [5]: 16.3 s
Bas [5]: 0%
Eos [5]: 1%
Fbg [5]: 261.4 mg/dL
Hb [5]: 13 g/dL
Ht [5]: 39.4%
Lym [5]: 75.6%
MCH [5]: 21.8 pg
MCHC [5]: 33%
MCV [5]: 65.9 fL
Mono [5]: 2.6%
Neu [5]: 20.2%
PT [5]: 16 s
Plat [5]: 110.5 x10_4/uL
RBC [5]: 598 x10_4/ul
Ret [5]: 7.3%
WBC [5]: 96.2 x10_2/uL
KIDNEY_L [5]: 1 g
KIDNEY_R [5]: 1 g
KIDNEY_TOTAL [5]: 2 g
LIVER [5]: 10.8 g
A/G [5]: 0.8
ALP [5]: 1662 IU/L
ALT [5]: 51.2 IU/L
AST [5]: 82.4 IU/L
BUN [5]: 16.2 mg/dL
CRE [5]: 0.2 mg/dL
Ca [5]: 10.8 mg/dL
Cl [5]: 105.6 meq/L
DBIL [5]: 0.018 mg/dL
GLC [5]: 182 mg/dL
IP [5]: 7.7 mg/dL
K [5]: 4 meq/L
LDH [5]: 98.8 IU/L
Na [5]: 142.8 meq/L
PL [5]: 139 mg/dL
RALB [5]: 2.6 g/dL
TBIL [5]: 0.054 mg/dL
TC [5]: 71.6 mg/dL
TG [5]: 76 mg/dL
TP [5]: 5.6 g/dL
gamma-GTP [5]: 0.8 IU/L
TERMINAL_BW [6]: 259.3 g
TERMINAL_BW [7]: 323.3 g
TERMINAL_BW [8]: 416.4 g
APTT [6]: 17 s
Bas [6]: 0%
Eos [6]: 1%
Fbg [6]: 263 mg/dL
Hb [6]: 13.8 g/dL
Ht [6]: 41.3%
Lym [6]: 80.6%
MCH [6]: 21.5 pg
MCHC [6]: 33.5%
MCV [6]: 64.4 fL
Mono [6]: 1.8%
Neu [6]: 16.2%
PT [6]: 15.7 s
Plat [6]: 117.5 x10_4/uL
RBC [6]: 643 x10_4/ul
Ret [6]: 5.9%
WBC [6]: 88.4 x10_2/uL
APTT [7]: 18.1 s
Bas [7]: 0%
Eos [7]: 0.8%
Fbg [7]: 266.4 mg/dL
Hb [7]: 14.2 g/dL
Ht [7]: 41.7%
Lym [7]: 81.2%
MCH [7]: 20.7 pg
MCHC [7]: 34%
MCV [7]: 60.9 fL
Mono [7]: 2.4%
Neu [7]: 15%
PT [7]: 15.7 s
Plat [7]: 111 x10_4/uL
RBC [7]: 685.8 x10_4/ul
Ret [7]: 4.3%
WBC [7]: 106.7 x10_2/uL
APTT [8]: 18.3 s
Bas [8]: 0%
Eos [8]: 1%
Fbg [8]: 297.2 mg/dL
Hb [8]: 15.4 g/dL
Ht [8]: 43.7%
Lym [8]: 80.4%
MCH [8]: 20.6 pg
MCHC [8]: 35.2%
MCV [8]: 58.4 fL
Mono [8]: 2%
Neu [8]: 15%
PT [8]: 15.9 s
Plat [8]: 90.9 x10_4/uL
RBC [8]: 748.8 x10_4/ul
Ret [8]: 2.6%
WBC [8]: 105.9 x10_2/uL
KIDNEY_L [6]: 1.1 g
KIDNEY_R [6]: 1.1 g
KIDNEY_TOTAL [6]: 2.1 g
KIDNEY_L [7]: 1.3 g
KIDNEY_R [7]: 1.3 g
KIDNEY_TOTAL [7]: 2.7 g
KIDNEY_L [8]: 1.4 g
KIDNEY_R [8]: 1.4 g
KIDNEY_TOTAL [8]: 2.8 g
LIVER [6]: 12.6 g
LIVER [7]: 14.7 g
LIVER [8]: 16.8 g
A/G [6]: 0.9
ALP [6]: 1602.2 IU/L
ALT [6]: 41 IU/L
AST [6]: 65.8 IU/L
BUN [6]: 17.4 mg/dL
CRE [6]: 0.2 mg/dL
Ca [6]: 11.1 mg/dL
Cl [6]: 106 meq/L
DBIL [6]: 0.018 mg/dL
GLC [6]: 189 mg/dL
IP [6]: 7.2 mg/dL
K [6]: 4.3 meq/L
LDH [6]: 66.2 IU/L
Na [6]: 142.6 meq/L
PL [6]: 158.2 mg/dL
RALB [6]: 2.7 g/dL
TBIL [6]: 0.052 mg/dL
TC [6]: 72.6 mg/dL
TG [6]: 118.4 mg/dL
TP [6]: 5.9 g/dL
gamma-GTP [6]: 0.8 IU/L
A/G [7]: 0.8
ALP [7]: 1484.2 IU/L
ALT [7]: 40.8 IU/L
AST [7]: 67.2 IU/L
BUN [7]: 15.4 mg/dL
CRE [7]: 0.2 mg/dL
Ca [7]: 10.6 mg/dL
Cl [7]: 103.6 meq/L
DBIL [7]: 0.016 mg/dL
GLC [7]: 184.6 mg/dL
IP [7]: 7.3 mg/dL
K [7]: 4 meq/L
LDH [7]: 86.2 IU/L
Na [7]: 141.6 meq/L
PL [7]: 163 mg/dL
RALB [7]: 2.7 g/dL
TBIL [7]: 0.052 mg/dL
TC [7]: 74.8 mg/dL
TG [7]: 142.4 mg/dL
TP [7]: 6 g/dL
gamma-GTP [7]: 0.6 IU/L
A/G [8]: 0.8
ALP [8]: 1346.6 IU/L
ALT [8]: 41.4 IU/L
AST [8]: 69.6 IU/L
BUN [8]: 17.4 mg/dL
CRE [8]: 0.2 mg/dL
Ca [8]: 10.6 mg/dL
Cl [8]: 105 meq/L
DBIL [8]: 0.012 mg/dL
GLC [8]: 196.8 mg/dL
IP [8]: 6.8 mg/dL
K [8]: 4 meq/L
LDH [8]: 100.8 IU/L
Na [8]: 142.6 meq/L
PL [8]: 154.8 mg/dL
RALB [8]: 2.8 g/dL
TBIL [8]: 0.05 mg/dL
TC [8]: 76.8 mg/dL
TG [8]: 113.4 mg/dL
TP [8]: 6.3 g/dL
gamma-GTP [8]: 0.8 IU/L
